Reference: paper PMC6277767, “Broad and Region-Specific Impacts of the Synthetic Cannabinoid CP 55,940 in Adolescent and Adult Female Mouse Brains” (Frontiers in Molecular Neuroscience, 2018)

Tested on: CD1 female mouse brain lipidome
Experiment: Brain-region lipid levels (HPLC/MS/MS lipidomics) 2 h after single i.p. 3 mg/kg CP 55,940 vs vehicle
Format: in vivo
Experimental: The Bloomington Institutional Animal Care and Use Committee of Indiana University reviewed and approved the animal procedures. Female mice from the CD1 strain were utilized to match our study examining THC’s effects on the brain lipidome ([Leishman et al., 2018]). Mice were given a single i.p. injection of either 3 mg/kg CP or 1:1:18 cremophor:ethanol:saline vehicle (please refer to the section “3 mg/kg CP Is Relevant for Synthetic Cannabinoid Abuse and Has Stronger Effects on the Female Mouse Brain Lipidome During Adolescence” for a justification of dose and use of female mice). Three different age groups were given injections: PND 35 and PND 50 adolescents, and adult mice (PND 113). At least eight mice in each age group received CP and at least eight received vehicle. Matching the THC study time course ([Leishman et al., 2018]), mice were sacrificed via rapid decapitation 2 h after injection. Brains were immediately removed and flash-frozen in liquid nitrogen, and then stored at -80°C until dissections were performed. Brains were dissected on an ice-cold dissection plate into the following regions: STR, HIPP, CER, THAL, CTX, HYP, MID, and STEM. These abbreviations for these brain areas will be used exclusively when discussing the results generated by these specific dissections. Each dissected area was immediately placed in liquid nitrogen and then stored at -80°C until used for lipid extraction.
Tissue extracts were performed as previously described ([Bradshaw et al., 2006]; [Stuart et al., 2013]; [Raboune et al., 2014]; [Leishman et al., 2016a],[b], [2017], [2018]). First, samples were shock frozen in liquid nitrogen, weighed, and transferred to a centrifuge tube. The mass of the largest sample was multiplied by 50 to determine how many milliliters of HPLC-grade methanol (Fisher, Fair Lawn, NJ, United States) to add. Then, samples were spiked with 500 pmol deuterium-labeled NAGly (d8NAGly; Cayman Chemical, Ann Arbor, MI, United States). Samples were placed on ice in darkness for 2 h then individually homogenized and centrifuged at 19,000 × g for 20 min at 20°C. Supernatants were diluted with HPLC water (purified in house) to make a solution of 75% water, 25% supernatant. Lipids were partially purified on C18 solid phase extraction columns (Agilent, Palo Alto, CA, United States). A series of four elutions with 1.5 mL of 60%, 75%, 85%, and 100% methanol were collected ([Stuart et al., 2013]; [Leishman et al., 2016a],[b], [2018]).
As previously described ([Bradshaw et al., 2006]; [Tan et al., 2006]; [Smoum et al., 2010]; [Stuart et al., 2013]; [Tortoriello et al., 2013]; [Raboune et al., 2014]; [Leishman et al., 2016a],[b], [2017], [2018]), samples were analyzed using an Applied Biosystems API 3000 triple quadrupole mass spectrometer with electrospray ionization (Foster City, CA, United States). Using an Agilent XDB-C18 reversed phase analytical column and optimized mobile phase gradients, 20 μL from each elution were chromatographed. Two Shimadzu 10ADvp pumps (Columbia, MD, United States) provided the pressure for gradient elution. Mobile phase A: 20% methanol, 80% water (v/v) and 1 mM ammonium acetate (Sigma, St. Louis, MO, United States). Mobile phase B: 100% methanol, 1 mM ammonium acetate. Every method run began with 0% mobile phase B, reached 100% mobile phase B flowing at 0.2 mL/min, and gradually returned to 0% mobile phase B.
This screening library will be referred to as the lipidome when discussing data from this study. HPLC/MS/MS data were analyzed using Analyst software (Applied Biosystems) ([Bradshaw et al., 2006]; [Tan et al., 2006]; [Stuart et al., 2013]; [Tortoriello et al., 2013]; [Raboune et al., 2014]; [Leishman et al., 2016a],[b], [2017], [2018]). Chromatograms (Supplementary Figure 3) were generated by determining the retention time of analytes from the analytical column with a [M-1] or [M+1] parent peak and a fragmentation peak corresponding to the programmed values. […]

Structure (SMILES): CCCCCCC(C)(C)c1ccc([C@@H]2C[C@H](O)CC[C@H]2CCCO)c(O)c1 [CP 55,940]
- PGF2α level vs vehicle (PND 35 STR): ↑ (1-1.49 times higher than vehicle)
- 2-linoleoyl glycerol level vs vehicle (PND 35 THAL): ↓ (1-1.49 times lower than vehicle)
- 6-ketoPGF1α level vs vehicle (PND 35 THAL): ↓ (1-1.49 times lower than vehicle)
- N- stearoyl valine level vs vehicle (PND 35 THAL): ↑ (1-1.49 times higher than vehicle)
- N-arachidonoyl GABA level vs vehicle (PND 35 THAL): ↓ (1-1.49 times lower than vehicle)
- N-arachidonoyl alanine level vs vehicle (PND 35 THAL): ↓ (1-1.49 times lower than vehicle)
- N-arachidonoyl ethanolamine level vs vehicle (PND 35 THAL): ↑ (1-1.49 times higher than vehicle)
- N-arachidonoyl glycine level vs vehicle (PND 35 THAL): ↓ (1-1.49 times lower than vehicle)
- N-arachidonoyl phenylalanine level vs vehicle (PND 35 THAL): ↑ (1-1.49 times higher than vehicle)
- N-arachidonoyl serine level vs vehicle (PND 35 THAL): ↓ (1-1.49 times lower than vehicle)
- N-arachidonoyl taurine level vs vehicle (PND 35 THAL): ↓ (1-1.49 times lower than vehicle)
- N-docosahexaenoyl GABA level vs vehicle (PND 35 THAL): ↓ (1-1.49 times lower than vehicle)
- N-docosahexaenoyl alanine level vs vehicle (PND 35 THAL): ↓ (1-1.49 times lower than vehicle)
- N-docosahexaenoyl glycine level vs vehicle (PND 35 THAL): ↓ (1-1.49 times lower than vehicle)
- N-docosahexaenoyl leucine level vs vehicle (PND 35 THAL): ↑↑ (1.50-1.99 times higher than vehicle)
- N-docosahexaenoyl phenylalanine level vs vehicle (PND 35 THAL): ↑ (1-1.49 times higher than vehicle)
- N-linoleoyl ethanolamine level vs vehicle (PND 35 THAL): ↑ (1-1.49 times higher than vehicle)
- N-oleoyl GABA level vs vehicle (PND 35 THAL): ↓ (1-1.49 times lower than vehicle)
- N-oleoyl alanine level vs vehicle (PND 35 THAL): ↓ (1-1.49 times lower than vehicle)
- N-oleoyl glycine level vs vehicle (PND 35 THAL): ↓ (1-1.49 times lower than vehicle)
- N-oleoyl leucine level vs vehicle (PND 35 THAL): ↑ (1-1.49 times higher than vehicle)
- N-oleoyl valine level vs vehicle (PND 35 THAL): ↑ (1-1.49 times higher than vehicle)
- N-palmitoyl GABA level vs vehicle (PND 35 THAL): ↑ (1-1.49 times higher than vehicle)
- N-palmitoyl leucine level vs vehicle (PND 35 THAL): ↑ (1-1.49 times higher than vehicle)
- N-palmitoyl phenylalanine level vs vehicle (PND 35 THAL): ↑ (1-1.49 times higher than vehicle)
- N-palmitoyl tyrosine level vs vehicle (PND 35 THAL): ↑ (1-1.49 times higher than vehicle)
- N-palmitoyl valine level vs vehicle (PND 35 THAL): ↑↑ (1.50-1.99 times higher than vehicle)
- N-stearoyl serine level vs vehicle (PND 35 THAL): ↓ (1-1.49 times lower than vehicle)
- N-stearoyl tyrosine level vs vehicle (PND 35 THAL): ↓ (1-1.49 times lower than vehicle)
- PGE2 level vs vehicle (PND 35 THAL): ↑ (1-1.49 times higher than vehicle)
- phosphoLEA level vs vehicle (PND 35 THAL): ↑ (1-1.49 times higher than vehicle)
- changes in NAEs (PND 35 brain): 17
- changes in PG levels (PND 35 brain): 15
- changes in lipoamines derived from AA (PND 35 brain): 50
- decreases in 2-acyl glycerol levels (PND 35 brain): 15
- decreases in PG levels (PND 35 brain): 5
- decreases in free fatty acid levels (PND 35 brain): Eight
- increases in PG levels (PND 35 brain): 10
- percentage of detected lipids modified with acute CP (PND 35 brain, 529 detected): 43.67%
- 2-arachidonoyl glycerol, Direction (relative to Veh) (PND 35 hypothalamus): ↓
- 2-arachidonoyl glycerol, Magnitude (x Veh level) (PND 35 hypothalamus): 0.39 x Veh level
- 2-linoleoyl glycerol Direction (relative to Veh) (PND 35 hypothalamus): ↓
- 2-linoleoyl glycerol Magnitude (x Veh level) (PND 35 hypothalamus): 0.63 x Veh level
- 2-oleoyl glycerol, Direction (relative to Veh) (PND 35 hypothalamus): ↓
- 2-oleoyl glycerol, Magnitude (x Veh level) (PND 35 hypothalamus): 0.55 x Veh level
- 2-palmitoyl glycerol, Direction (relative to Veh) (PND 35 hypothalamus): ↑
- 2-palmitoyl glycerol, Magnitude (x Veh level) (PND 35 hypothalamus): 1.29 x Veh level
- Arachidonic acid, Direction (relative to Veh) (PND 35 hypothalamus): ↓
- Arachidonic acid, Magnitude (x Veh level) (PND 35 hypothalamus): 0.85 x Veh level
- Linoleic acid, Direction (relative to Veh) (PND 35 hypothalamus): ↓
- Linoleic acid, Magnitude (x Veh level) (PND 35 hypothalamus): 0.75 x Veh level
- N-arachidonoyl GABA Direction (relative to Veh) (PND 35 hypothalamus): ↓
- N-arachidonoyl GABA Magnitude (x Veh level) (PND 35 hypothalamus): 0.74 x Veh level
- N-arachidonoyl alanine Magnitude (x Veh level) (PND 35 hypothalamus): 0.55 x Veh level
- N-arachidonoyl alanine, Direction (relative to Veh) (PND 35 hypothalamus): ↓
- N-arachidonoyl ethanolamine, Direction (relative to Veh) (PND 35 hypothalamus): ↓
- N-arachidonoyl ethanolamine, Magnitude (x Veh level) (PND 35 hypothalamus): 0.76 x Veh level
- N-arachidonoyl glycine Direction (relative to Veh) (PND 35 hypothalamus): ↓
- N-arachidonoyl glycine Magnitude (x Veh level) (PND 35 hypothalamus): 0.70 x Veh level
- N-arachidonoyl phenylalanine, Direction (relative to Veh) (PND 35 hypothalamus): ↓
- N-arachidonoyl phenylalanine, Magnitude (x Veh level) (PND 35 hypothalamus): 0.86 x Veh level
- N-arachidonoyl taurine Direction (relative to Veh) (PND 35 hypothalamus): ↓
- N-arachidonoyl taurine Magnitude (x Veh level) (PND 35 hypothalamus): 0.70 x Veh level
- N-docosahexaenoyl GABA Direction (relative to Veh) (PND 35 hypothalamus): ↓
- N-docosahexaenoyl GABA Magnitude (x Veh level) (PND 35 hypothalamus): 0.68 x Veh level
- N-docosahexaenoyl ethanolamine, Direction (relative to Veh) (PND 35 hypothalamus): ↓
- N-docosahexaenoyl ethanolamine, Magnitude (x Veh level) (PND 35 hypothalamus): 0.59 x Veh level
- N-linoleoyl alanine direction (relative to Veh) (PND 35 hypothalamus): ↓
- N-linoleoyl alanine magnitude (x Veh level) (PND 35 hypothalamus): 0.77 x Veh level
- N-oleoyl GABA Magnitude (x Veh level) (PND 35 hypothalamus): 0.87 x Veh level
- N-oleoyl GABA direction (relative to Veh) (PND 35 hypothalamus): ↓
- N-oleoyl alanine Magnitude (x Veh level) (PND 35 hypothalamus): 0.84 x Veh level
- N-oleoyl alanine direction (relative to Veh) (PND 35 hypothalamus): ↓
- N-oleoyl ethanolamine, Direction (relative to Veh) (PND 35 hypothalamus): ↓
- N-oleoyl ethanolamine, Magnitude (x Veh level) (PND 35 hypothalamus): 0.65 x Veh level
- N-palmitoyl ethanolamine, Direction (relative to Veh) (PND 35 hypothalamus): ↓
- N-palmitoyl ethanolamine, Magnitude (x Veh level) (PND 35 hypothalamus): 0.66 x Veh level
- N-palmitoyl leucine, Direction (relative to Veh) (PND 35 hypothalamus): ↑
- N-palmitoyl leucine, Magnitude (x Veh level) (PND 35 hypothalamus): 1.30 x Veh level
- N-stearoyl ethanolamine direction (relative to Veh) (PND 35 hypothalamus): ↓
- N-stearoyl ethanolamine magnitude (x Veh level) (PND 35 hypothalamus): 0.73 x Veh level
- Oleic acid, Direction (relative to Veh) (PND 35 hypothalamus): ↓
- Oleic acid, Magnitude (x Veh level) (PND 35 hypothalamus): 0.72 x Veh level
- PGE2 Direction (relative to Veh) (PND 35 hypothalamus): ↓
- PGE2 Magnitude (x Veh level) (PND 35 hypothalamus): 0.78 x Veh level
- PGF2α Direction (relative to Veh) (PND 35 hypothalamus): ↑
- PGF2α Magnitude (x Veh level) (PND 35 hypothalamus): 1.27 x Veh level
- phoshoLEA direction (relative to Veh) (PND 35 hypothalamus): ↑
- phoshoLEA magnitude (x Veh level) (PND 35 hypothalamus): 1.47 x Veh level
- 2-linoleoyl glycerol: Magnitude (x Veh level) (PND 35 midbrain, 3mg/kg): 0.76 x Veh level
- 6-ketoPGF1α: Magnitude (x Veh level) (PND 35 midbrain, 3mg/kg): 0.86 x Veh level
- Arachidonic acid: Magnitude (x Veh level) (PND 35 midbrain, 3mg/kg): 0.88 x Veh level
- N-arachidonoyl GABA: Magnitude (x Veh level) (PND 35 midbrain, 3mg/kg): 0.69 x Veh level
- N-arachidonoyl alanine: Magnitude (x Veh level) (PND 35 midbrain, 3mg/kg): 0.79 x Veh level
- N-arachidonoyl glycine: Magnitude (x Veh level) (PND 35 midbrain, 3mg/kg): 0.89 x Veh level
- N-arachidonoyl serine: Magnitude (x Veh level) (PND 35 midbrain, 3mg/kg): 0.82 x Veh level
- N-arachidonoyl taurine: Magnitude (x Veh level) (PND 35 midbrain, 3mg/kg): 0.87 x Veh level
- N-arachidonoyl tyrosine: Magnitude (x Veh level) (PND 35 midbrain, 3mg/kg): 0.81 x Veh level
- N-docosahexaenoyl GABA: Magnitude (x Veh level) (PND 35 midbrain, 3mg/kg): 0.72 x Veh level
- N-docosahexaenoyl alanine: Magnitude (x Veh level) (PND 35 midbrain, 3mg/kg): 0.82 x Veh level
- N-docosahexaenoyl glycine: Magnitude (x Veh level) (PND 35 midbrain, 3mg/kg): 0.88 x Veh level
- N-docosahexaenoyl leucine: Magnitude (x Veh level) (PND 35 midbrain, 3mg/kg): 1.40 x Veh level
